The source of these data is patent US20210322350A1, “EXOGENOUS KETONE SUPPLEMENTATION COMPOSITIONS, SYSTEMS AND METHODS” (Ketone Clarity LLC, priority 2020, published 2021).

Data set [1] can be described thus: Blood ketone levels after exogenous ketone supplementation. The format is in vivo, human. The source says: Technical effect: raising blood ketone levels by currently known methods. FIG. 6 is a graphical illustration of exogenous ketone blood levels by three precursors using Medium Chain Triglycerides, ketone salts and ketone esters. […] In the healthy adult, blood ketone levels can be naturally raised from a 0.0 mmol/L baseline to 0.5 mmol/L while following a normal diet.
While MCT oil can raise blood ketone levels for a long duration, often the rise in ketone levels is nominal at best with a 0.5 mmol/L increase. Ketone salts can raise blood ketone levels to 1.5 mmol/L, but often do so with a metabolic load of heavy salt ingestion along with an undesired racemic mixture of both ‘D’ and ‘L’ isomers of BHB. The so called “ketone ester” synthetic products can raise blood ketone levels to 2-4 mmol/L when consumed at 30-35 g of product but the result is often short lasting.
FIG. 7 is a graphical illustration of D-BHB exogenous ketone blood levels.
(§1) FIG. 9 is a graphical illustration of blood levels of ketones and glucose resulting from the claimed invention. In the graphical illustration, body ketone levels increase from 1.4 mmol/L to 2.7 mmol/L after 50 minutes of consuming 10 g of D-BHB. […]

A short description of data set [2]: Anti-depression and anti-anxiety mood enhancement. The format is in vivo. The settings on record: in the absence of anti-depressant and/or anti-anxiety medication; at least 10 g at least twice per day. The source says: FIG. 18 is a graphical illustration of improved mental anti-depression and anti-anxiety activity resulting from enhanced D-BHB levels according to the claimed invention. […] While preferred consumption of natural D-BHB can range from 10 g-30 g of natural D-BHB, a best illustrative example reflects at least 10 g exogenous D-BHB supplementation at least twice per day.

Data set [3] is described as follows: Blood glucose levels after D-BHB consumption. The format is in vivo, human. The protocol:
FIG. 9 is a graphical illustration of blood levels of ketones and glucose resulting from the claimed invention. In the graphical illustration, body ketone levels increase from 1.4 mmol/L to 2.7 mmol/L after 50 minutes of consuming 10 g of D-BHB. While ketone levels increase, glucose levels are decreased from 5.2 mmol/L to 4.8 mmol/L. While blood ketone rates can change rapidly as ketones are consumed through exercise or metabolic activity, the lowering of glucose often happens over a prolonged period of time. Consequently, this example is a good introduction to the regulatory effects of the ketone body D-BHB which are independent of and often outlast the energy benefits provided by exogenous ketones even after they are consumed by the body.
FIG. 14 is a graphical illustration of lowered blood glucose measured in mmol/L as a result of daily 10 g consumption resulting from enhanced D-BHB levels according to the claimed invention. Diet plays a key role in the onset and progression of Type II diabetes and pre-diabetic conditions. The hallmark indication of the progression of this disease is identified through measurement of blood glucose levels. […] In a preferred embodiment 10-20 g of D-BHB are consumed, but more or less can be utilized in other embodiments of the claimed invention.

A short description of data set [4]: Gout pain and inflammation. The format is in vivo. The source says: FIG. 21 is a graphical illustration of gout reduction resulting from enhanced D-BHB levels according to the claimed invention. Owing to the role of exogenous natural D-BHB as a regulatory element of the NLRP3 inflammasome, inflammations are reduced as a direct result of exogenous D-BHB supplementation. In a preferred embodiment, 10 g or more of D-Beta HydroxyButyric acid is consumed daily to reduce gout flare-ups.

Data set [5] in a line: Sleep cycles (deep and light sleep time) with D-BHB taken prior to sleep. As to conditions: over several sleep cycles. The format is in vivo. The source says:
During deep sleep, a variety of functions take place in the mind and body. During deep sleep not only does physical recovery occur. The brain recuperates as well during which memories are consolidated and learning and emotions are processed. Physiologically, blood sugar levels and metabolism balance out and the immune system is energized. FIG. 11 is a graphical illustration of improved sleep time resulting from enhanced D-BHB levels according to the claimed invention based on the data detailed in Table 1.
The data gathered in Table 1 reflects unaided sleep cycles in bold together with sleep aided by 10-20 g D-BHB which is reflective of a preferred embodiment of the claimed invention. On average, unaided sleep results in approximately 1.5 hours of deep sleep in an eight hour sleep cycle. […] In a preferred and foreseen embodiment of the claimed invention, improved deep sleep is achieved as a result of exogenous ketone D-BHB supplementation.

A short description of data set [6]: Physical endurance on a measured exercise course. The format is in vivo. The source says:
FIG. 16 is a graphical illustration of improved physical endurance resulting from enhanced D-BHB levels according to the claimed invention. While understanding of the mechanism of ketone enhancement of physical endurance is only beginning, there is a direct and measurable benefit of consumption of natural D-Beta HydroxyButyric acid to enhance physical exertion and post-exercise activity recovery. FIG. 16 illustrates the physical performance parameter in which a subject with and without natural D-BHB ketone supplementation is impeded by shortness of breath and muscle pain and drop in performance owing to lactic acid build-up in the body. Without natural D-BHB ketone supplementation on a measured exercise course pain and fatigue will occur after 27 minutes. […] While preferred consumption of natural D-BHB can range from 10 g-30 g of natural D-BHB, lesser or greater amounts may also be safely consumed for exercise improvement and benefits.

Data set [7] can be described thus: Bone density measurements during D-BHB consumption. The settings on record: 10 g daily; period during which bone loss was expected. The format is in vivo. The source says: FIG. 20 is a graphical illustration of sustained bone protection resulting from enhanced D-BHB levels according to the claimed invention. Loss of bone density can be statistically predicted and measured during specific time of life events such as post-menopause as well as during space missions for astronauts in space. […] Similar benefits against bone loss for space based applications are indicated and expected with consumption of 20 g of exogenous D-BHB daily.

Data set [8] is described as follows: Blood oxygen levels before and after D-BHB. The format is in vivo. As to conditions: 30 minutes after 10 g; from 80%. The source says:
FIG. 13 is a graphical illustration of enhanced blood oxygen resulting from enhanced D-BHB levels according to the claimed invention.

Data set [9] is described as follows: Sensation of hunger after waking. The format is in vivo. As to conditions: several hours after rising in the morning. The source says:
FIG. 15 is a graphical illustration of lowered hunger resulting from enhanced D-BHB levels according to the claimed invention. While the sensation of hunger itself arises from a complex interplay of glucose, insulin and the hormone ghrelin, identification and measurement of hunger is easy and straightforward according to the claimed invention. Hunger is often a key reason why diet attempts such as attempting to follow the ketogenic diet or other diets fail. Hunger is also a significant impediment to individuals attempting to undergo a fasting state for health or other purposes. While even consuming a moderate amount such as 5 g of exogenous natural D-BHB ketone supplement can reduce the sensation of hunger, regular consumption of larger amounts such as 10 g-20 g represent a preferred embodiment of the claimed invention. […] Hunger reduction, however, is provided at any time of day according to the claimed invention and is not just morning dependent.

A short description of data set [10]: Glucose/Ketone Index (GKI). The format is in vivo, human. Here is the method: Introducing GKI: Measuring Glucose vs Ketones. FIG. 8 is a schematic illustration of the Glucose/Ketone Index. When measuring both blood ketone levels and blood glucose levels, taking reference from the Glucose/Ketone Index (GKI) can help guide a user to achieve therapeutic benefits according to the claimed invention. The Glucose/Ketone Index is measured by dividing the blood level of glucose by the blood level of ketones measured in mmol/L. By way of illustration, a healthy individual not following the ketogenic diet could have glucose levels of 5.0 mmol/L and ketone levels of 0.1 mmol/L. According to the GKI they would have a value of greater than 9 and as such would not be in ketosis. An individual following the ketogenic diet and potentially supplementing their diet with ketone salts or MCT oil may have a glucose level of 5.6 mmol/L and ketone level of 1.3 mmol/L, resulting in a GKI of 4.3. This moderate ketosis level can be useful for managing obesity and diabetes.
as §1

Data set [11] is described as follows: Systolic and diastolic blood pressure after D-BHB ingestion. The format is in vivo. The settings on record: 10 g; measurable within an hour, remains several hours. The source says: FIG. 12 is a graphical illustration of improved blood pressure resulting from enhanced D-BHB levels according to the claimed invention. In addition to increasing blood ketones and lowering blood glucose, consumption of exogenous D-BHB according to the claimed invention also has a direct and measurable impact on lowering blood pressure. […] Blood pressure reduction is measurable within an hour of ingestion and is positive effects of lower blood pressure remain for several hours afterwards.

The next data set concerns HDAC. As to conditions: cited from earlier work.
For data set [12] the following is noted: 750 mg/kg by gavage 24 hours after 0.5 or 6 Gy radiation; cited from earlier work.
For data set [13] the following is noted: consumed at 30-35 g of product; short lasting; cited from earlier work.

Each structure is given as a SMILES string.

The compound `CC(O)CC(=O)O` [D-BHB, D-Beta-HydroxyButyric Acid] had a body ketone level in data set [1] (50 minutes after consuming 10 g, from 1.4 mmol/L) of 2.7 mmol/L. Further, in data set [1] (consumption of 10-30 g), the “blood ketone levels versus existing methods” value is on record as “higher blood ketone levels”. Further, the cognitive mood enhancement entry in [2] is “cognitive improvement”. Moreover, in data set [3] (after consuming 10 g, from 5.2 mmol/L), the glucose level was determined as 4.8 mmol/L. Further, the blood glucose level in data set [3] (daily 10 g consumption, baseline over 7 mmol/L) is ≤ 4 mmol/L. The gout pain entry in data set [4] (15 g, in three days) was “from extreme to very moderate”. The gout inflammation entry in data set [4] (continued daily consumption, in less than one week) is “entirely removed gout inflammation”. Further, in data set [5], the “extension of deep sleep” value is given as “extended by over an hour”. Moreover, in data set [6], the post-workout recovery time entry is “markedly reduced”. The “range of performance before pain and fatigue” value in data set [6] (27 minutes without supplementation) came to 44 min. In addition, the bone density entry in data set [7] is “bone density health and retention”. In addition, the blood oxygen level in data set [8] is on record as 99%. For the same compound, the sensation of hunger entry in data set [9] is recorded as “greater reduction to even omission of hunger sensations”. Also, the “Glucose/Ketone Index (GKI)” value in data set [10] (after consuming 10 g) worked out at 1.8. Also, the GKI levels in [10] (regular D-BHB consumption) was 1-3. In addition, the “systolic and diastolic blood pressure” value in data set [11] is “measurable decrease”.

Take `CC(O)CC(=O)[O-].[Na+]` (centres unmarked) [b-OHB]: the renal dysfunction result in the data set on HDAC (IR-injured kidney) is “ameliorated renal dysfunction”. The “HDAC activity in the IR-injured kidney” value in the data set on HDAC was “inhibited HDAC activity”.

On to `C[C@@H](O)CCOC(=O)C[C@@H](C)O` [ketone ester, (R)-3-hydroxybutyl (R)-3-hydroxybutyrate], for which, in [12], the “radiation-induced decrease of reticulocyte/erythrocyte ratio in bone marrow” value is recorded as “significantly attenuated”. The “blood ketone levels raised to” value in [13] is 2 to 4 mmol/L.
